The nature of data set [1]: Stability noted on isolation of the compound. Conditions: after Prep-TLC purification. In kind it is physicochemical. The procedure:
To a mixture of compound 33 (80 mg, 0.28 mmol), compound 2 (22 mg, 0.09 mmol) and 2M Na2CO3 (1.2 mL) was added dioxane (6 mL). N2 was bubbled through the solution for 1.5 minutes, at which time Pd(dppf)Cl2 (12 mg, […]) was added. The reaction was stirred at 100° C. for 1 hour under N2. After cooling to room temperature, Ethyl acetate was added and the resulting slurry was sonicated and filtered. Additional ethyl acetate was used to wash the solid. The combined organic extracts were concentrated and the crude material was purified by Prep-TLC using Petroleum ether:Ethyl acetate (3:1) affording to Example 33 (10 mg),and the compound was unstable. ^1H NMR (400 MHz, CDCl3): δ 8.83 (s, 1H), 7.68-7.64 (m, 1H), 6.74-6.78 (m, 1H), 6.70-6.73 (m, 1H), 5.53 (bs, 2H), 4.11-4.04 (m, 4H), 3.87-3.82 (m, 4H). ESI-MS (M+H)^+: 366.1

Another data set addresses mTOR (FRAP1) (Homo sapiens, UniProt P42345). Kind of data set: SelectScreen Profiling, Z'-LYTE kinase assay, mTOR (FRAP1). The format is biochemical. As to conditions: 0.1 μM compound, ATP at Km, read-out: mTOR inh% @0.1 μM. An excerpt: (§1) Some of the example compounds were submitted to Life Technologies Corporation SelectScreen® Profiling Service to test their potency in inhibiting the kinase catalytic activities of mTOR, PI3Kα, VEGF2, FGFR1, HER1 (EGFR) and HER2. A concentration of ATP at the Km of the corresponding kinase was used for all assays. The mTOR (FRAP1), VEGF2, FGFR1, HER1 (EGFR) and HER2 assays used Z′-LYTE® technology. The PI3Kα assay used Adapta® technology. The symbol “inh %” as used herein generally refers to inhibition percentage.

A further data set concerns the target PI3Kα (Homo sapiens, UniProt P42336). Description: SelectScreen Profiling, Adapta kinase assay, PI3Kα. In kind it is biochemical. Conditions: 0.1 μM compound, ATP at Km, read-out: PI3Kα inh % @0.1 μM.
The target of the next data set is VEGF2 (Homo sapiens, UniProt P35968). Kind of data set: SelectScreen Profiling, Z'-LYTE kinase assay, VEGF2. The format is biochemical. As to conditions: 1 μM compound, ATP at Km, read-out: VEGF 2 inh % @1 μM.
From the text: as §1

Another data set has as its target FGFR1 (Homo sapiens, UniProt P11362). Kind of data set: SelectScreen Profiling, Z'-LYTE kinase assay, FGFR1. In kind it is biochemical. Conditions: 1 μM compound, ATP at Km, read-out: FGFR 1 inh % @1 μM.
From the text: as §1

In a further data set the target is HER1 (EGFR) (Homo sapiens, UniProt P00533). Description: SelectScreen Profiling, Z'-LYTE kinase assay, HER1 (EGFR). As to conditions: 1 μM compound, ATP at Km, read-out: HER1 inh % @1 μM. In kind it is biochemical.
From the text: as §1

For a further data set, the target named is HER2 (Homo sapiens, UniProt P04626). Kind of data set: SelectScreen Profiling, Z'-LYTE kinase assay, HER2. The format is biochemical. Conditions: 1 μM compound, ATP at Km, read-out: HER2 inh % @1 μM.
From the text: as §1

For data set [2], the system named is mammalian tumor cell lines such as PC-3, LNCAP, U87, Huh-7, HepG2 and MDA-MB-468. Description: Cell proliferation/survival MTT assay in tumor cell lines. In kind it is cell-based. As to conditions: 5 days (120 h) culture; cell line not specified; read-out: IC50, inhibition of tumor cell growth (MTT). As to the method:
The cytotoxic or cytostatic activity of Formula I-III exemplary compounds was measured by establishing proliferating mammalian tumor cell lines such as PC-3, LNCAP, U87, Huh-7, HepG2 and MDA-MB-468 in a cell culture medium, adding a test compound, culturing the cells for a period of 5 days by measuring cell viability via MTT assays. Dose response data were obtained for each test compound and the degree of inhibition of tumor cell growth was expressed as an IC50 value. […] For example. For example, compounds of example 14, 15, 46,29, 45, 49, 122, 88, 54, 55, 58, 59, 63, 64, 66, 67, 68, 113, 86, 90.
PC-3 (or U87) cells were seeded in 96-well plates at low density (at 2,000 cells per well) in media supplemented with 10% FBS (growth media) and transferred to serum-free media (1% FBS) after 24 h. Designated concentrations of drug were added to each well. The cells were incubated for 120 h. At the end of drug exposure, 20 μL/well of MTT solution was added. After 4 h at 37° C. in a humidified 5% CO2 atmosphere, the absorbance at 490 nm was recorded by using a microplate reader. IC50 was calculated using GraphPad Prism version 5 for Windows. The curves were fit using a nonlinear regression model with a log (inhibitor) versus response formula.

A further data set has as its system PC-3. Kind of data set: NCI60 panel growth inhibition, PC-3. The format is cell-based. As to conditions: Homo sapiens. As to the method:
(§2) Cell growth inhibitory activities against cancer cells of the present compounds were also evaluated by submitting selected the example compounds to US NCI-Chemotherapeutic Agents Repository for screening against NCI60 panel. The United States NCI-60 platform is a cancer cell platform established with 60 different human cancer cell lines from 9 different kinds of organs. This platform represents the biological characteristics of the corresponding tumor type. The drugs were screened by measuring the ability of each test compound at a range of concentrations to inhibit the growth of various tumor cells.

The test system of the next data set is MCF-7. Description: NCI60 panel growth inhibition, MCF-7. The format is cell-based. As to conditions: Homo sapiens, MCF7. The procedure:
as §2

In a further data set the test system is HCT-116. Kind of data set: NCI60 panel growth inhibition, HCT-116. The format is cell-based. As to conditions: Homo sapiens. The procedure:
as §2

The subject of another data set is NCI-H23. Description: NCI60 panel growth inhibition, NCI-H23. In kind it is cell-based. As to conditions: Homo sapiens. The procedure:
as §2

In another data set the test system is NCI-H460. Description: NCI60 panel growth inhibition, NCI-H460. The format is cell-based. Conditions: Homo sapiens. The procedure:
as §2

For another data set, the system named is SKOV-3. Description: NCI60 panel growth inhibition, SKOV-3. Conditions: Homo sapiens, SK-OV-3. The format is cell-based. The procedure:
as §2

In another data set the test system is A549. Kind of data set: NCI60 panel growth inhibition, A549. As to conditions: Homo sapiens. The format is cell-based. The procedure:
as §2

For a further data set, the system named is NCI 60 human cell lines. Description: NCI60 panel growth inhibition, average over 60 cell lines. In kind it is cell-based. As to the method: as §2
The nature of data set [3]: Metabolic stability in human liver microsome (HLM). The format is in vitro ADME. Conditions: incubation with human liver microsome for 60 min. As to the method: (§3) Active mTOR inhibitors in enzymatic and/or cell-based assays herein were evaluated for pharmacokinetic properties. Preferable compounds are with pharmacokinetic properties of low clearance, long half-life and/or good oral bioavailability (Fpo). In vitro, selected example compounds were evaluated for metabolic stability by incubating with human liver microsome (HLM) for 60 min. Compounds that were metabolized slower (i.e. higher % remaining) are preferred. […] The more metabolic stable example compounds in the HLM assay were further evaluated for pharmacokinetic properties in vivo. In a representative experiment, selected example compounds were dosed to rats intravenously (IV, 5 mg/kg, 30% PEG400+30% PG+1% DMSO in saline) and orally (PO, 10 mg/kg, 2.4% DMSO+0.1% Tween80 in 0.5% CMC-Na), rat blood samples were taken at designed time points after dosing and analyzed for tested drug concentrations using LC-MS/MS. Pharmacokinetic parameters were derived from the time curve of drug concentrations.

The nature of data set [4]: Rat pharmacokinetic study (IV and PO). The format is in vivo. Conditions: blood, IV 5 mg/kg. As to the method: as §3

Bounds are passed on as bounds.

Sequence of PI3Kα (P42336 whole entry): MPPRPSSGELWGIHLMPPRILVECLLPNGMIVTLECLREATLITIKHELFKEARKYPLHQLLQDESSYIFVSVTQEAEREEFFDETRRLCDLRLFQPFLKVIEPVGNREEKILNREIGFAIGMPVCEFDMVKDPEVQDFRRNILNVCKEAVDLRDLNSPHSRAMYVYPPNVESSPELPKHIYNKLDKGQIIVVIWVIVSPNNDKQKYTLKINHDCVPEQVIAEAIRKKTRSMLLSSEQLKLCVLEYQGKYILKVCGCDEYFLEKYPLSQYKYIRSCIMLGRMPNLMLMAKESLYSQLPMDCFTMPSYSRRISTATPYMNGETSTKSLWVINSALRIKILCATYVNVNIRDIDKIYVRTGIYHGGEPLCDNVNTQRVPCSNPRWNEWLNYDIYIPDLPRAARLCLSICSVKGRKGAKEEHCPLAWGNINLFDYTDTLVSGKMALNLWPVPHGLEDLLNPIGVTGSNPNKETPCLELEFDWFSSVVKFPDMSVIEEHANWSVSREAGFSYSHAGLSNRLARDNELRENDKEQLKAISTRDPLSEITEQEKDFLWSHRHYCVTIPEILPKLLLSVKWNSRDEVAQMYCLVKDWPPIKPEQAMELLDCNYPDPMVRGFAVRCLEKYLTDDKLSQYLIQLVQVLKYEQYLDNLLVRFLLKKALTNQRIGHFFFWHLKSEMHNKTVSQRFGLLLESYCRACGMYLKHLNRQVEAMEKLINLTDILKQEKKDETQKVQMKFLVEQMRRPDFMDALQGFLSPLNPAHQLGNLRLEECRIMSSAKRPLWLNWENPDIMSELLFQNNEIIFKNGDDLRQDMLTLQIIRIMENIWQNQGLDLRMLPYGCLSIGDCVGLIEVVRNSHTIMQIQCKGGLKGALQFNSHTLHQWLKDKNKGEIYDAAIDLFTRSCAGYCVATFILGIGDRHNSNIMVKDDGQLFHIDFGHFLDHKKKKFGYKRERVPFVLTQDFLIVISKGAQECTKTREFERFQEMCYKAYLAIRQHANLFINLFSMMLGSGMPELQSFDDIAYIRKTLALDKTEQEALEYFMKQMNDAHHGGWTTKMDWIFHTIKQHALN
Sequence of PI3Kα (P27986 whole entry partner): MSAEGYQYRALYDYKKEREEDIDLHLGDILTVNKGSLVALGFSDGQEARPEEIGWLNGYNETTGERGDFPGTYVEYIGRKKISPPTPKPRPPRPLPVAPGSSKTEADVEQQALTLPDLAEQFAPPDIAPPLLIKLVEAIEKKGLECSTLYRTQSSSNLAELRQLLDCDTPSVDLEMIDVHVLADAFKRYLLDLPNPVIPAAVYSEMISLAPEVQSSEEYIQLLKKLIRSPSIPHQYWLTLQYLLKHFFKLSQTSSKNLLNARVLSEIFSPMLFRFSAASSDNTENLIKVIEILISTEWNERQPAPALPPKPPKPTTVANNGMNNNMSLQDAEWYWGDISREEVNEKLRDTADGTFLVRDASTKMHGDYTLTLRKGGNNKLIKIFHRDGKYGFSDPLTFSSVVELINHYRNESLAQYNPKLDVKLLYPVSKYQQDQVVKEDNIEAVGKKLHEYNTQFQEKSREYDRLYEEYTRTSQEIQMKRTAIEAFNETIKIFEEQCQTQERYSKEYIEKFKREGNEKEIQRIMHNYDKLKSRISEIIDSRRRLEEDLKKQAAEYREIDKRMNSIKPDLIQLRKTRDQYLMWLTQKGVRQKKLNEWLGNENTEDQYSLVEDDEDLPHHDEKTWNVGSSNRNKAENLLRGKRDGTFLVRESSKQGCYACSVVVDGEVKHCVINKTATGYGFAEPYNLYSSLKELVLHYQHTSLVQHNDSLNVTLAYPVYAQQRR
Sequence of FGFR1 (P11362 22-822): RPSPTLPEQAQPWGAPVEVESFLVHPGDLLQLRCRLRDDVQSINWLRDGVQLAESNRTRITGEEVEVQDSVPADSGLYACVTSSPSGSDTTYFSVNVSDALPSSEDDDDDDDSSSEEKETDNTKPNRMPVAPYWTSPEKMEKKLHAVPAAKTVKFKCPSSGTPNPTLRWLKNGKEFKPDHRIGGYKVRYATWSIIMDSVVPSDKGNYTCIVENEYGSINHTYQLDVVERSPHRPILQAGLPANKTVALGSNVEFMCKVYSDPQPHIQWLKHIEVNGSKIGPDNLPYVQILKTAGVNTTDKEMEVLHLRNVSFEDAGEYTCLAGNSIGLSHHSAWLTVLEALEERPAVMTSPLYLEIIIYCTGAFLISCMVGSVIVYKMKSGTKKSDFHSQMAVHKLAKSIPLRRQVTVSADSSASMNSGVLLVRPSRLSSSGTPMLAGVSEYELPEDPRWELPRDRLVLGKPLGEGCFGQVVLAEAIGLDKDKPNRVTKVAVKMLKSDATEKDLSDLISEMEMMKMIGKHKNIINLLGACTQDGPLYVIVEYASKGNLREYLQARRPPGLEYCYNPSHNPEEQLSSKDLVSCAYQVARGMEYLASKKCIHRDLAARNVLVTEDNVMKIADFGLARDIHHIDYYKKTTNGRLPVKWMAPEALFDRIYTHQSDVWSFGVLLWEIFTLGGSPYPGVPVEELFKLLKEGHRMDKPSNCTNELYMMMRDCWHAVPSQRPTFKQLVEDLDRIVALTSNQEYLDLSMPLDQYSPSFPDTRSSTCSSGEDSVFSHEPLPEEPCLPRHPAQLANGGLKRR
Sequence of VEGF2 (P35968 20-1356): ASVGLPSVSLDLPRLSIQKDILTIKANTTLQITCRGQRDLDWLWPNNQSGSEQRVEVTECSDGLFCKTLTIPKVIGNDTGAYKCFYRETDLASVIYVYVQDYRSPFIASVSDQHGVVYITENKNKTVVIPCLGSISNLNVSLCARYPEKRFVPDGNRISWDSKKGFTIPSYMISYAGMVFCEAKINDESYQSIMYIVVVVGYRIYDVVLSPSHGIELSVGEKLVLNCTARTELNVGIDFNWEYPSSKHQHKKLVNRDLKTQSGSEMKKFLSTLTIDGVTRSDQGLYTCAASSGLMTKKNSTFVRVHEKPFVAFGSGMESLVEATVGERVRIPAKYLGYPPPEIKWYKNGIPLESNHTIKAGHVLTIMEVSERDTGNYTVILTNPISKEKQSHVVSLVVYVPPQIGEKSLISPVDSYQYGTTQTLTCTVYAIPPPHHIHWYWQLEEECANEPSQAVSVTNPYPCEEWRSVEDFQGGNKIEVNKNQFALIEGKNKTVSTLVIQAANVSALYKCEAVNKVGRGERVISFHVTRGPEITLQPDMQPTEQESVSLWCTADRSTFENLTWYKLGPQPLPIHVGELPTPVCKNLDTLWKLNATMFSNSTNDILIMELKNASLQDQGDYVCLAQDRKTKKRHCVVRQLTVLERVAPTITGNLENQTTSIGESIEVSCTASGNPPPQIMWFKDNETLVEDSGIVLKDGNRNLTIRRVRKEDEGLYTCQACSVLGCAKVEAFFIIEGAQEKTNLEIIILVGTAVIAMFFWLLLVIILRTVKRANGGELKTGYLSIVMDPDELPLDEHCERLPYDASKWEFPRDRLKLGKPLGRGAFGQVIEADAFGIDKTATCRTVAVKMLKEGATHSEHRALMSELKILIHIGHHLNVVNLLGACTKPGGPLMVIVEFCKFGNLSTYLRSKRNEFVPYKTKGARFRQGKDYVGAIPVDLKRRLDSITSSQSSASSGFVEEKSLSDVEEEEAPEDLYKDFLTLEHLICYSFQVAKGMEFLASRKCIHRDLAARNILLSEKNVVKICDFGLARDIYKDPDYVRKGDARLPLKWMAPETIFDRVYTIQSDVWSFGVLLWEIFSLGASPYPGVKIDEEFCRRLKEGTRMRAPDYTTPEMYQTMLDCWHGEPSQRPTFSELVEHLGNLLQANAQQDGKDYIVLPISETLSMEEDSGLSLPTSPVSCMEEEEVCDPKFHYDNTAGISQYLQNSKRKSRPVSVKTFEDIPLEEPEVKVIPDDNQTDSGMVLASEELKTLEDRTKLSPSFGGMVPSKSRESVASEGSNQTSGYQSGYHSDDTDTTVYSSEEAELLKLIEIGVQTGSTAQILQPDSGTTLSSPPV
Sequence of HER1 (EGFR) (P00533 25-1210): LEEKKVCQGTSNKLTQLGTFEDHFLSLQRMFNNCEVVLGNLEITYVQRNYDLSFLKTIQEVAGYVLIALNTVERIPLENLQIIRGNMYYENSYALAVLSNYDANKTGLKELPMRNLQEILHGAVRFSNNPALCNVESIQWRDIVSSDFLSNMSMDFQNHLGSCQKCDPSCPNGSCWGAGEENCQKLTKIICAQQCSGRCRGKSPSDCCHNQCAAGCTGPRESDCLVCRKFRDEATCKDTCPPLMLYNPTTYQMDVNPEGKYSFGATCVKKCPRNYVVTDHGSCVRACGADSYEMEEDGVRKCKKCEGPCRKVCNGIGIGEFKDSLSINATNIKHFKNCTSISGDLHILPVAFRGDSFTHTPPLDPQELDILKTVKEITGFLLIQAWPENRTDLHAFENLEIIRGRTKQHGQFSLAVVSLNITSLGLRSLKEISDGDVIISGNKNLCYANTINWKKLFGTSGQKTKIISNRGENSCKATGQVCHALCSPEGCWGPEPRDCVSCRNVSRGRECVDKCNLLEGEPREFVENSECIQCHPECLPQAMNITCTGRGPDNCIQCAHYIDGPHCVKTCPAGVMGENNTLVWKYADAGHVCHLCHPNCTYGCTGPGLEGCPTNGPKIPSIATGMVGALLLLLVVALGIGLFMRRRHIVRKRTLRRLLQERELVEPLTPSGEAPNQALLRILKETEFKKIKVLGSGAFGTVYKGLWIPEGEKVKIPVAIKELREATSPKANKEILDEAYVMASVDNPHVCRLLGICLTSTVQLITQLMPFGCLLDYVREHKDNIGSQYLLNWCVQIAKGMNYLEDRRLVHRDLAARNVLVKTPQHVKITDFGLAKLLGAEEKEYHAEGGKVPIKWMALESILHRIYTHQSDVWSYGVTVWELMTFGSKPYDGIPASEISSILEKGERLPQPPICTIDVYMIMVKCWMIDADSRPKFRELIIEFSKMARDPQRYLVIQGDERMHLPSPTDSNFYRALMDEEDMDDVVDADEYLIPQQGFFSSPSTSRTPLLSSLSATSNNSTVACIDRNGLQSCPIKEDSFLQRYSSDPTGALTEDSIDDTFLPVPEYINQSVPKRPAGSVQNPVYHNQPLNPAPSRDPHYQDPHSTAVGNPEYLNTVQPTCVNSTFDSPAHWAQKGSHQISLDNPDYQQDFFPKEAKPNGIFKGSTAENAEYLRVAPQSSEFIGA

For the compound `Nc1ncc(-c2nc(N3CCOCC3)c3cccn3n2)c(C(F)(F)F)n1` [Example 33], the “stability of the isolated compound” value in data set [1] is listed as “unstable”.
Consider `CN(C)C1CCN(C(=O)c2ccc(NC(=O)Nc3ccc(-c4nc(N5CCOCC5)c5cccn5n4)cc3)cc2)CC1` [Example 15], for which the inhibition at 0.1 µM at mTOR (FRAP1) worked out at 98%; on PI3Kα, 54%. Also, the inhibition at 1 µM is 8% on VEGF2, 4% on FGFR1, -2% on HER1 (EGFR) and -7% at HER2. Moreover, the IC50 in [2] is < 500 nM. Moreover, the GI50 in the data set on PC-3 is 25 nM; in the data set with MCF-7, < 10 nM; in the data set on HCT-116, 65.7 nM; with NCI-H23, 123 nM; with NCI-H460, 67 nM; in the data set with SKOV-3, 46.3 nM. Also, the figures for the GI50 with A549 and in the data set with NCI 60 human cell lines were 54.5 nM and 76 nM, respectively. Besides, in [3], the “metabolic stability in HLM” value is “metabolically stable”. This compound returned an AUC(0-t) in data set [4] of 3430 ng·h/mL. The Cmax in data set [4] was found to be 4710 ng/mL. This compound also came in with an MRT in [4] of 5.57 h. Moreover, the clearance in data set [4] is 17.8 mL/min/kg. This compound also had a half-life in data set [4] of 4.98 h.

The record behind these values is US11242346B2, “Mechanistic target of rapamycin signaling pathway inhibitors and therapeutic applications thereof” (SUZHOU KINTOR PHARMACEUTICALS, INC., priority 2016, dated 2022).
